Test results from PubChem BioAssay AID1963981 (Molecular Pharmacology Branch, DTP, NCI, 2024).
One block for each compound: values may come before it.

Test system: 354836-022-R-J1-PDC multicell spheroid viability
Assay: Anticancer human tumor 354836-022-R-J1-PDC patient-derived head and neck squamous cell carcinoma cell line growth inhibition [PI3K]
Conditions: for IC50: curve of first compound; for viability, T/C: stronger effect = lower value
How it was run: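 Stroma-containing spheroids: tumor line, pooled-donor HUVEC, hMSC. Treatments: targeted agents with PI3K inhibitors. Dosing: clinically relevant, half-log spacing, 10 microM ceiling without known Cmax. Read-out: cell viability.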

[1] = second compound 0.0316 µM, first compound 0.0316 µM
[2] = second compound 0.0316 µM, first compound 0.1 µM
[3] = second compound 0.1 µM, first compound 0.0316 µM
[4] = second compound 0.1 µM, first compound 0.1 µM
[5] = second compound 0.316 µM, first compound 0.0316 µM
[6] = second compound 0.316 µM, first compound 0.1 µM
[7] = second compound 1 µM, first compound 0.0316 µM
[8] = second compound 1 µM, first compound 0.1 µM
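Also: spheroids exposed to agents for seven days before the viability read.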

- IC50 (second compound 0.00316 µM): > 10000 nM
- IC50 (second compound 0.01 µM): > 10000 nM
- IC50 (second compound 0.0316 µM): > 10000 nM
- IC50 (second compound 0.1 µM): > 10000 nM
- IC50 (second compound 0.316 µM): > 10000 nM
- IC50 (second compound 1 µM): > 10000 nM
SMILES: CNC(=O)c1ccc(N2C(=S)N(c3ccc(C#N)c(C(F)(F)F)c3)C(=O)C2(C)C)cc1F + CC(Nc1ccc2c(c1)OCCn1cc(N3C(=O)OCC3C(F)F)nc1-2)C(N)=O
- viability, T/C (second compound 0.00316 µM, first compound 0.0316 µM): 92.3%
- viability, T/C (second compound 0.00316 µM, first compound 0.1 µM): 99%
- viability, T/C (second compound 0.00316 µM, first compound 0.316 µM): 104%
- viability, T/C (second compound 0.00316 µM, first compound 1 µM): 82.8%
- viability, T/C (second compound 0.00316 µM, first compound 3.16 µM): 97.8%
- viability, T/C (second compound 0.00316 µM, first compound 10 µM): 84.7%
- viability, T/C (second compound 0.01 µM, first compound 0.0316 µM): 120%
- viability, T/C (second compound 0.01 µM, first compound 0.1 µM): 88%
- viability, T/C (second compound 0.01 µM, first compound 0.316 µM): 94.3%
- viability, T/C (second compound 0.01 µM, first compound 1 µM): 101%
- viability, T/C (second compound 0.01 µM, first compound 3.16 µM): 93.5%
- viability, T/C (second compound 0.01 µM, first compound 10 µM): 84.6%
- viability, T/C [1]: 92%
- viability, T/C [2]: 96.7%
- viability, T/C (second compound 0.0316 µM, first compound 0.316 µM): 83.1%
- viability, T/C (second compound 0.0316 µM, first compound 1 µM): 89.4%
- viability, T/C (second compound 0.0316 µM, first compound 3.16 µM): 87.9%
- viability, T/C (second compound 0.0316 µM, first compound 10 µM): 88.2%
- viability, T/C [3]: 90.8%
- viability, T/C [4]: 95.2%
- viability, T/C (second compound 0.1 µM, first compound 0.316 µM): 94.2%
- viability, T/C (second compound 0.1 µM, first compound 1 µM): 91%
- viability, T/C (second compound 0.1 µM, first compound 3.16 µM): 88.7%
- viability, T/C (second compound 0.1 µM, first compound 10 µM): 85.7%
- viability, T/C [5]: 62.9%
- viability, T/C [6]: 79.9%
- viability, T/C (second compound 0.316 µM, first compound 0.316 µM): 74.1%
- viability, T/C (second compound 0.316 µM, first compound 1 µM): 67.6%
- viability, T/C (second compound 0.316 µM, first compound 3.16 µM): 77.6%
- viability, T/C (second compound 0.316 µM, first compound 10 µM): 67.9%
- viability, T/C [7]: 63.5%
- viability, T/C [8]: 57.7%
- viability, T/C (second compound 1 µM, first compound 0.316 µM): 64.3%
- viability, T/C (second compound 1 µM, first compound 1 µM): 58.4%
- viability, T/C (second compound 1 µM, first compound 3.16 µM): 54.3%
- viability, T/C (second compound 1 µM, first compound 10 µM): 53.4%

- IC50 (second compound 0.0316 µM): 15.5 nM
- IC50 (second compound 0.1 µM): 21.7 nM
- IC50 (second compound 0.316 µM): 16.4 nM
- IC50 (second compound 1 µM): 15.5 nM
- IC50 (second compound 3.16 µM): 19.3 nM
- IC50 (second compound 10 µM): 16.8 nM
SMILES: CC(C)n1nc(-c2ccc3oc(N)nc3c2)c2c(N)ncnc21 + CC(Nc1ncnc2nc[nH]c12)c1cc2cccc(Cl)c2c(=O)n1-c1ccccc1
- viability, T/C (second compound 0.0316 µM, first compound 0.000316 µM): 88.2%
- viability, T/C (second compound 0.0316 µM, first compound 0.001 µM): 96.5%
- viability, T/C (second compound 0.0316 µM, first compound 0.00316 µM): 79.9%
- viability, T/C (second compound 0.0316 µM, first compound 0.01 µM): 57%
- viability, T/C [1]: 35.3%
- viability, T/C [2]: 5.53%
- viability, T/C (second compound 0.1 µM, first compound 0.000316 µM): 97.8%
- viability, T/C (second compound 0.1 µM, first compound 0.001 µM): 102%
- viability, T/C (second compound 0.1 µM, first compound 0.00316 µM): 81.1%
- viability, T/C (second compound 0.1 µM, first compound 0.01 µM): 86.3%
- viability, T/C [3]: 32.8%
- viability, T/C [4]: 4.44%
- viability, T/C (second compound 0.316 µM, first compound 0.000316 µM): 92.6%
- viability, T/C (second compound 0.316 µM, first compound 0.001 µM): 101%
- viability, T/C (second compound 0.316 µM, first compound 0.00316 µM): 80.7%
- viability, T/C (second compound 0.316 µM, first compound 0.01 µM): 61.2%
- viability, T/C [5]: 34.9%
- viability, T/C [6]: 6.09%
- viability, T/C (second compound 1 µM, first compound 0.000316 µM): 113%
- viability, T/C (second compound 1 µM, first compound 0.001 µM): 98.2%
- viability, T/C (second compound 1 µM, first compound 0.00316 µM): 92.7%
- viability, T/C (second compound 1 µM, first compound 0.01 µM): 59.5%
- viability, T/C [7]: 31.6%
- viability, T/C [8]: 5.81%
- viability, T/C (second compound 3.16 µM, first compound 0.000316 µM): 105%
- viability, T/C (second compound 3.16 µM, first compound 0.001 µM): 99%
- viability, T/C (second compound 3.16 µM, first compound 0.00316 µM): 73.1%
- viability, T/C (second compound 3.16 µM, first compound 0.01 µM): 68.1%
- viability, T/C (second compound 3.16 µM, first compound 0.0316 µM): 40.9%
- viability, T/C (second compound 3.16 µM, first compound 0.1 µM): 5.66%
- viability, T/C (second compound 10 µM, first compound 0.000316 µM): 95.5%
- viability, T/C (second compound 10 µM, first compound 0.001 µM): 101%
- viability, T/C (second compound 10 µM, first compound 0.00316 µM): 89.2%
- viability, T/C (second compound 10 µM, first compound 0.01 µM): 62.7%
- viability, T/C (second compound 10 µM, first compound 0.0316 µM): 33.3%
- viability, T/C (second compound 10 µM, first compound 0.1 µM): 6.25%
